Entries after “also recorded” stand apart in the source; their conditions may differ.
Key:
[1] = system: CCSP-rtTA/otet-TGFα transgenic mice; assay: Prevention of TGFα-induced pulmonary fibrosis, PX-866 given at initiation of TGFα induction; type: in vivo; conditions: 4 weeks of Dox, PX-866 from initiation of TGFα induction
Source text: (§1) CCSP-rtTA activator mice expressing the reverse tetracycline-responsive transactivator (rtTA) under control of the 2.3-kb rat Clara Cell Secretory Protein (CCSP), a.k.a. secretoglobin, family 1A, member 1 (Scgblal) gene promoter were mated to conditional doxycycline (Dox) regulated transgenic mice containing the human TGFα cDNA under the control of seven copies of the tetracycline operon ((TetO)7-cmv TGFα) plus a minimal CMV promoter. Single transgenic (CCSP-rtTA+/−) and bitransgenic CCSP-rtTA+/−/(TetO)7-cmv TGFα+/− mice were produced within the same litter by mating homozygous CCSP-rtTA+/+ mice to hemizygous (TetO)?-cmv TGFα+/− mice. All mice were derived from the FVB/NJ inbred strain. […]
(§2) Lung Histology, Immunostaining and Total Lung Collagen: Lungs were inflation fixed as previously described. […] Total lung collagen was determined by quantifying total soluble collagen (Sircol Collagen Assay, Biocolor, Ireland) as previously described.
(§3) Pulmonary Mechanics: Lung mechanics were assessed on mice with a computerized Flexi Vent system (SCIREQ, Montreal, Canada). […] The ventilation mode was changed to forced oscillatory signal (0.5-19.6 Hz), and respiratory impedance was measured. […]
(§4) Statistics: Means (+/−SEM) were calculated and plotted for each variable, by mouse group (CCSP/-Vehicle, CCSP/TGFα Vehicle, CCSP/TGFα PX-866). Data were assessed for normality using plots and the Shapiro-Wilk test. […]

[2] = system: phosphorylated Akt (P-Akt) Ser 473; assay: Western blot of TGFα-induced phosphorylation of Akt in lung homogenates; type: in vivo; conditions: 1 day of Dox, PX-866 pretreatment 3 mg/kg by gavage, vs vehicle-treated transgenic mice
Source text: as §1, with “strain. Mice were maintained in virus-free containment.” for “strain.”
Western Blots: Western blot analysis was performed on lung homogenates as previously described. Blots were incubated with antibodies against total and phosphorylated Akt (Ser 473 and Thr 308, Cell Signaling Technology) and quantified using the volume integration function on a PhosphorImager software Imagequant 5.2 (Molecular Dynamics, Sunnyvale, Calif.).
PX-866 inhibits TGFα-Induced Phosphorylation of Akt: CCSP-rtTA/otet-TGFαmice were treated with 1 day of Dox to induce TGFα expression. Phosphorylated Akt (P-Akt) levels for Ser 473 as measured by Western blot analysis increased over 5-fold compared to Dox-treated control mice.

[3] = system: CCSP-rtTA/otet-TGFα transgenic mice; assay: Progression of established TGFα-induced pulmonary fibrosis, PX-866 given after 4 weeks of Dox; type: in vivo; conditions: 8 weeks of Dox
Source text: CCSP-rtTA activator mice expressing the reverse tetracycline-responsive transactivator (rtTA) under control of the 2.3-kb rat Clara Cell Secretory Protein (CCSP), a.k.a. secretoglobin, family 1A, member 1 (Scgblal) gene promoter were mated to conditional doxycycline (Dox) regulated transgenic mice containing the human TGFα cDNA under the control of seven copies of the tetracycline operon ((TetO)7-cmv TGFα) plus a minimal CMV promoter. Single transgenic (CCSP-rtTA+/−) and bitransgenic CCSP-rtTA+/−/(TetO)7-cmv TGFα+/− mice were produced within the same litter by mating homozygous CCSP-rtTA+/+ mice to hemizygous (TetO)?-cmv TGFα+/− mice. All mice were derived from the FVB/NJ inbred strain. Mice were maintained in virus-free containment. All animal protocols were reviewed and approved by the Institutional Animal Use and Care Committee of the Cincinnati Children's Hospital Research Foundation. To induce TGFα expression, Dox (Sigma, St. Louis, Mo.) was administered in the drinking water at a final concentration of 0.5 mg/ml and in food (62.5 mg/kg). Water was replaced three times per week. Mice were genotyped as known in the art.
The PI3K inhibitor PX-866 (ProIX Pharmaceuticals, Tucson, Ariz.) was suspended into 5% EtOH to make a 5 mg/ml stock solution. Three hours prior to administration, food and water were removed from cages. Mice were then anesthetized (Isoflurane; Abbott Labs, Chicago, Ill.), and sterile vehicle or drug (3 mg/kg) was administered by gavage using a 20 gauge feeding catheter (Harvard Apparatus, Holliston, Mass.). Mice were treated with vehicle or PX-866 every other day for up to 4 weeks. Mice were killed with pentobarbital sodium (65 mg/ml) euthanasia solution (Fort Dodge Animal Health, Fort Dodge, Iowa) 1 day or 4 weeks after Dox and vehicle or PX-866 treatment.
as §2, §3, §4
Weights of mice in four different groups were measured at Baseline and at evenly spaced intervals during the next eight weeks, once per week. […] Differences in selected (a priori) Group*Time means were calculated and tested using a simulation-based adjustment for multiple comparisons. […]

[4] = aqueous solutions at 37° C. or 0° C. at neutral pH; cited from earlier work
[5] = PX-866 from 4 weeks after TGFα induction

Row | SMILES | lung mechanics (airway resistance, airway and tissue elastance, compliance) [1] | TGFα-induced phosphorylation of Akt (P-Akt, Ser 473) [2] | lung fibrosis by histology [3, 5] | lung mechanics (airway resistance, airway and tissue elastance, compliance) [3, 5] | total lung collagen [3, 5] | body weight ([3]; PX-866 from beginning of week 5) | stability in aqueous solution [4]
1 | C=CCN(/C=C1/C(=O)O[C@H](COC)[C@@]2(C)C1=C(O)C(=O)C1=C2[C@H](OC(C)=O)C[C@]2(C)C(=O)CC[C@@H]12)CC=C [PX-866] | did not show any differences in lung mechanics; also recorded: prevented increases in airway resistance, airway and tissue elastance, and decreases in compliance | prevented TGFα-induced increases in P-Akt; also recorded: prevented increased phosphorylation of Akt | reduced pleural fibrosis as well as reduced perivascular and peribronchial fibrosis; also recorded: reduced fibrosis on lung histology; also recorded: attenuation of fibrosis | significantly improved compared with vehicle-treated mice; also recorded: improved lung mechanics; also recorded: reduced increases in airway resistance, and airway and tissue elastance, and decreases in compliance | reduced lung collagen levels; also recorded: unchanged compared with mice taken off Dox after 4 weeks | prevented further body weight loss; also recorded: normalization of body weights; also recorded: did not have changes in body weight | –
2 | COC[C@H]1OC(=O)c2coc3c2[C@@]1(C)C1=C(C3=O)[C@@H]2CCC(=O)[C@@]2(C)C[C@H]1OC(C)=O [Wortmannin] | – | – | – | – | – | – | subject to decomposition by hydrolytic opening of the furan ring
